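Each compound was tested at five concentrations against cells in 96-well plates for 48 hours. Abbreviation: GI50, concentration required for 50% inhibition of growth. TGI denotes the concentration required for complete inhibition of growth.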
Columns and labels:
Test in all cases: NCI tumour cell line growth inhibition, 48 h
[1] = system: SNB-75 CNS
[2] = system: HCT-15 colon
[3] = system: HT29 colon
[4] = system: 786-0 renal
[5] = system: PC-3 prostate
[6] = system: HS 578T breast
[7] = system: OVCAR-4 ovarian
[8] = system: LOX IMVI melanoma
[9] = system: SR leukemia
[10] = system: UO-31 renal
[11] = system: OVCAR-5 ovarian
[12] = system: MCF7 breast
[13] = system: SF-295 CNS
[14] = system: SK-MEL-2 melanoma
[15] = system: SK-OV-3 ovarian
[16] = system: A498 renal
[17] = system: HOP-62 NSCLC
[18] = system: SK-MEL-28 melanoma
[19] = system: MOLT-4 leukemia
[20] = system: DU-145 prostate
[21] = system: MDA-MB-435
[22] = system: SW-620 colon
[23] = system: K-562 leukemia
[24] = system: UACC-257 melanoma
[25] = system: UACC-62 melanoma
[26] = system: ACHN renal
[27] = system: NCI-H23 lung
[28] = system: MALME-3M melanoma
[29] = system: NCI/ADR-RES ovarian
[30] = system: NCI-H226 lung
[31] = system: SN12C renal
[32] = system: IGROV1 ovarian
[33] = system: SNB-19 CNS
[34] = system: U251 CNS
[35] = system: TK-10 renal
[36] = system: M14 melanoma
[37] = system: HOP-92 NSCLC
[38] = system: CCRF-CEM leukemia
[39] = system: RPMI-8226 leukemia
[40] = system: OVCAR-3 ovarian
[41] = system: KM12 colon
[42] = system: SF-268 CNS
[43] = system: A549 NSCLC
[44] = system: MDA-MB-231 breast
[45] = system: OVCAR-8 ovarian
[46] = system: HCT-116 colon
[47] = system: MDA-N
[48] = system: SK-MEL-5 melanoma
[49] = system: COLO 205 colon
[50] = system: EKVX NSCLC
[51] = system: CAKI-1 renal
[52] = system: HCC-2998 colon
[53] = system: HL-60(TB) leukemia
[54] = system: T-47D breast
[55] = system: RXF 393 renal
[56] = system: NCI-H460 lung
[57] = system: BT-549 breast
[58] = system: NCI-H522 lung
[59] = system: SF-539 CNS

## CC1(C)OC[C@@H]([C@H](C=O)OCc2ccccc2)O1
[1]
  TGI: > 100 µM
[2]
  TGI: > 100 µM
[3]
  TGI: > 100 µM
[4]
  TGI: > 100 µM
[5]
  TGI: > 100 µM
[6]
  TGI: > 100 µM
[7]
  TGI: > 100 µM
[8]
  TGI: > 100 µM
[9]
  TGI: > 100 µM
[10]
  TGI: > 100 µM
[11]
  TGI: > 100 µM
[12]
  TGI: > 100 µM
[13]
  TGI: > 100 µM
[14]
  TGI: > 100 µM
[15]
  TGI: > 100 µM
[16]
  TGI: > 100 µM
[17]
  TGI: > 100 µM
[18]
  TGI: > 100 µM
[19]
  TGI: > 100 µM
[20]
  TGI: > 100 µM
[21]
  TGI: > 100 µM
[22]
  TGI: > 100 µM
[23]
  TGI: > 100 µM
[24]
  TGI: > 100 µM
[25]
  TGI: > 100 µM
[26]
  TGI: > 100 µM
[27]
  TGI: > 100 µM
[28]
  TGI: > 100 µM
[29]
  TGI: > 100 µM
[30]
  TGI: > 100 µM
[31]
  TGI: > 100 µM
[32]
  TGI: > 100 µM
[33]
  TGI: > 100 µM
[34]
  TGI: > 100 µM
[35]
  TGI: > 100 µM
[36]
  TGI: > 100 µM
[37]
  TGI: > 100 µM
[38]
  TGI: > 100 µM
[39]
  TGI: > 100 µM
[40]
  TGI: > 100 µM
[41]
  TGI: > 100 µM
[42]
  TGI: > 100 µM
[43]
  TGI: > 100 µM
[44]
  TGI: > 100 µM
[45]
  TGI: > 100 µM
[46]
  TGI: > 100 µM
[47]
  TGI: > 100 µM
[48]
  TGI: > 100 µM
[49]
  TGI: > 100 µM
[50]
  TGI: > 100 µM

## COc1ccc(C(=O)/C=C/c2ccc(OCC(=O)N3CCN(c4ccccc4)CC3)cc2)cc1OC
[51]
  TGI: > 10 µM
[1]
  TGI: 8.75 µM
[2]
  TGI: > 10 µM
[3]
  TGI: > 10 µM
[4]
  TGI: > 10 µM
[5]
  TGI: > 10 µM
[9]
  TGI: 6.47 µM
[12]
  TGI: > 10 µM
[13]
  TGI: > 10 µM
[15]
  TGI: > 10 µM
[17]
  TGI: > 10 µM
[18]
  TGI: > 10 µM
[19]
  TGI: 7.06 µM
[20]
  TGI: > 10 µM
[22]
  TGI: > 10 µM
[23]
  TGI: > 10 µM
[52]
  TGI: > 10 µM
[24]
  TGI: > 10 µM
[25]
  TGI: > 10 µM
[27]
  TGI: 5.55 µM
[53]
  TGI: > 10 µM
[28]
  TGI: > 10 µM
[31]
  TGI: > 10 µM
[32]
  TGI: > 10 µM
[35]
  TGI: > 10 µM
[36]
  TGI: > 10 µM
[38]
  TGI: 7.21 µM
[39]
  TGI: > 10 µM
[41]
  TGI: > 10 µM
[42]
  TGI: > 10 µM
[43]
  TGI: > 10 µM
[44]
  TGI: > 10 µM
[45]
  TGI: > 10 µM
[47]
  TGI: > 10 µM
[48]
  TGI: > 10 µM
[49]
  TGI: > 10 µM
[54]
  TGI: > 10 µM
[50]
  TGI: > 10 µM
[55]
  TGI: 3.86 µM

## COc1ccc(-c2nc(Nc3ccc(F)cc3)nc(Nc3ccc4c(c3)nc(C)n4Cc3ccccc3)n2)cc1
[1]
  GI50: 2.83 µM
  TGI: > 100 µM
[2]
  GI50: 2.95 µM
  TGI: > 100 µM
[3]
  GI50: 1.76 µM
  TGI: 3.56 µM
[4]
  GI50: 2.68 µM
  TGI: 11.2 µM
[5]
  GI50: 3.11 µM
  TGI: > 100 µM
[6]
  GI50: 6.63 µM
  TGI: > 100 µM
[7]
  GI50: 1.59 µM
  TGI: > 100 µM
[8]
  GI50: 3.98 µM
  TGI: 57.6 µM
[9]
  GI50: 3.49 µM
  TGI: 47.8 µM
[10]
  GI50: 3.53 µM
  TGI: > 100 µM
[11]
  GI50: 3.26 µM
  TGI: 68.9 µM
[12]
  GI50: 3.14 µM
  TGI: > 100 µM
[13]
  GI50: 3.73 µM
  TGI: > 100 µM
[14]
  GI50: 3.47 µM
  TGI: 11.9 µM
[15]
  GI50: 10.1 µM
  TGI: > 100 µM
[16]
  GI50: 2.39 µM
  TGI: 62.4 µM
[56]
  GI50: 3.35 µM
  TGI: 20.9 µM
[17]
  GI50: 8.47 µM
  TGI: > 100 µM
[18]
  GI50: 4.14 µM
  TGI: > 100 µM
[19]
  GI50: 3.44 µM
  TGI: > 100 µM
[20]
  GI50: 7.59 µM
  TGI: > 100 µM
[21]
  GI50: 3.27 µM
  TGI: > 100 µM
[22]
  GI50: 5.25 µM
  TGI: > 100 µM
[23]
  GI50: 3.44 µM
  TGI: > 100 µM
[52]
  GI50: 5.85 µM
  TGI: > 100 µM
[24]
  GI50: 7.17 µM
  TGI: > 100 µM
[25]
  GI50: 6.66 µM
  TGI: > 100 µM
[26]
  GI50: 3.13 µM
  TGI: > 100 µM
[27]
  GI50: 6.54 µM
  TGI: > 100 µM
[53]
  GI50: 4.54 µM
  TGI: > 100 µM
[28]
  GI50: 4.32 µM
  TGI: > 100 µM
[29]
  GI50: 3.23 µM
  TGI: 12.2 µM
[30]
  GI50: 5.34 µM
  TGI: > 100 µM
[31]
  GI50: 6.18 µM
  TGI: > 100 µM
[32]
  GI50: 5.41 µM
  TGI: > 100 µM
[33]
  GI50: 6.9 µM
  TGI: > 100 µM
[34]
  GI50: 4.19 µM
  TGI: > 100 µM
[36]
  GI50: 3.72 µM
  TGI: > 100 µM
[37]
  GI50: 2.59 µM
  TGI: > 100 µM
[38]
  GI50: 2.88 µM
  TGI: > 100 µM
[39]
  GI50: 2.48 µM
  TGI: 88.1 µM
[40]
  GI50: 6.54 µM
  TGI: > 100 µM
[41]
  GI50: 3.55 µM
  TGI: 33.8 µM
[42]
  GI50: 7.25 µM
  TGI: > 100 µM
[57]
  GI50: 3.52 µM
  TGI: > 100 µM
[58]
  GI50: 5.92 µM
  TGI: > 100 µM
[43]
  GI50: 3.59 µM
  TGI: > 100 µM
[44]
  GI50: 3.64 µM
  TGI: 18.9 µM
[45]
  GI50: 3.45 µM
  TGI: > 100 µM
[46]
  GI50: 3 µM
  TGI: > 100 µM
[59]
  GI50: 4.99 µM
  TGI: > 100 µM
[48]
  GI50: 3.2 µM
  TGI: 24.2 µM
[49]
  GI50: 2.28 µM
  TGI: 5.95 µM
[54]
  GI50: 2.42 µM
  TGI: 44.2 µM
[55]
  GI50: 2.53 µM
  TGI: 9.54 µM

Source: PubChem BioAssay (NCI)
